According to patent publication US20150094283A1, “COMBINATION” (GlaxoSmithKline LLC, priority 2010, published 2015):

Test system: SKOV3 tumor xenografts (human ovarian carcinoma)
Assay: Growth of SKOV3 tumor xenografts in SCID mice (tumor growth inhibition)
Type: in vivo
Conditions: PO, compared to vehicle treated mice
Experimental: Female SCID mice were implanted subcutaneously with 5×10^6 SKOV3 cells (human ovarian carcinoma). When the tumor volume reached 300-400 mm^3, mice were block randomized to different treatment groups (n=8 mice/group). Mice received the AKT inhibitor, Compound C as the free base, at 10 or 30 mg/kg, once daily (SID) for 21 days in 20% PEG-400, 1% DMSO in water. The VEGFR inhibitor, Compound A as the monohydrochloride salt, was administered at 100 mg/kg, twice/day (BID) for 21 days either alone or in combination with the AKT inhibitor. Mice were weighed and tumors measured by calipers twice weekly. Tumor volumes were calculated using the formula: tumor volume=(Length×Width^2)/2. The percentage of tumor growth inhibition was calculated on each day of tumor measurement using the formula: 100×[1−(average growth of the compound-treated tumors/average growth of vehicle-treated control tumors)]. Data is plotted as mean±sem for tumor volume for each group.

Row | SMILES | Tumor Growth Inhibition (Compound C (free base) 10 mg/kg, SID x21 d, 10 mg/kg) | Tumor Growth Inhibition (Compound C (free base) 30 mg/kg, SID x21 d, 30 mg/kg) | Tumor Growth Inhibition (Compound A (monohydrochloride salt) 100 mg/kg, BID x21 d, 100 mg/kg)
1 | Cn1ncc(Cl)c1-c1cc(C(=O)N[C@H](CN)Cc2ccc(F)c(F)c2)oc1Cl [Compound C, N-{(1S)-2-amino-1-[(3,4-difluorophenyl)methyl]ethyl}-5-chloro-4-(4-chloro-1-methyl-1H-pyrazol-5-yl)-2-furancarboxamide] | 86% | 67% | –
2 | Cc1ccc(Nc2nccc(N(C)c3ccc4c(C)n(C)nc4c3)n2)cc1S(N)(=O)=O [Compound A, 5-[[4-[(2,3-dimethyl-2H-indazol-6-yl)methylamino]-2-pyrimidinyl]amino]-2-methylbenzenesulfonamide, reference compound] | – | – | 47%
